Results reported in US20200121801A1, “DRUG DELIVERY CONJUGATES CONTAINING UNNATURAL AMINO ACIDS AND METHODS FOR USING” (priority 2012, published 2020).
Entries after “also recorded” stand apart in the source; their conditions may differ. Read-outs that look alike come from different tables or passages of the source.

Columns and labels:
KB cells (FR+) = format: cell-based, Human; settings: for In vitro specificity (fold) (d): IC50 competed group vs non-competed group
Protocol: METHOD. Inhibition of Cellular DNA Synthesis. The compounds described herein are evaluated using an in vitro cytotoxicity assay that predicts the ability of the drug to inhibit the growth of folate receptor-positive cells, such as KB cells, RAW264.7 macrophages, and the like. It is to be understood that the choice of cell type can made on the basis of the susceptibility of those selected cells to the drug that forms the conjugate. The test compounds are comprised of folate linked to a respective chemotherapeutic drug, as prepared according to the processes described herein. The test cells are exposed to varying concentrations of folate-drug conjugate, and also in the absence or presence of at least a 100-fold excess of folic acid to assess activity as being specific to folate receptor mediation.
EXAMPLE. Conjugates of cytotoxic drugs described herein are active against KB cells. The activity is mediated by the folate receptor as indicated by competition experiments using co-administered folic acid. KB cells are exposed for up to 7 h at 37° C. to the indicated concentrations of folate-drug conjugate in the absence or presence of at least a 100-fold excess of folic acid. The cells are then rinsed once with fresh culture medium and incubated in fresh culture medium for 72 hours at 37° C. Cell viability was assessed using a ^3H-thymidine incorporation assay.
METHOD. In vitro activity against various cancer cell lines. IC50 values are generated for various cell lines. Cells are heavily seeded in 24-well Falcon plates and allowed to form nearly confluent monolayers overnight. Thirty minutes prior to the addition of the test compound, spent medium is aspirated from all wells and replaced with fresh folate-deficient RPMI medium (FFRPMI). A subset of wells are designated to receive media containing 100 μM folic acid. The cells in the designated wells are used to determine the targeting specificity. Without being bound by theory it is believed herein that the cytotoxic activity produced by test compounds in the presence of excess folic acid, i.e. where there is competition for FR binding, corresponds to the portion of the total activity that is unrelated to FR-specific delivery. Following one rinse with 1 mL of fresh FFRPMI containing 10% heat-inactivated fetal calf serum, each well receives 1 mL of medium containing increasing concentrations of test compound (4 wells per sample) in the presence or absence of 100 μM free folic acid as indicated. Treated cells are pulsed for 2 h at 37° C., rinsed 4 times with 0.5 mL of media, and then chased in 1 mL of fresh medium up to 70 h. Spent medium is aspirated from all wells and replaced with fresh medium containing 5 μCi/mL ^3H-thymidine. Following a further 2 h 37° C. incubation, cells are washed 3 times with 0.5 mL of PBS and then treated with 0.5 mL of ice-cold 5% trichloroacetic acid per well. After 15 min, the trichloroacetic acid is aspirated and the cell material solubilized by the addition of 0.5 mL of 0.25 N sodium hydroxide for 15 min. A 450 μL aliquot of each solubilized sample is transferred to a scintillation vial containing 3 mL of Ecolume scintillation cocktail and then counted in a liquid scintillation counter. Final results are expressed as the percentage of ^3H-thymidine incorporation relative to untreated controls.

KB tumors = experiment: Inhibition of tumor growth, s.c. KB tumors in nu/nu mice; format: in vivo; set-up: key to In vivo activity (e): CR = complete response, where tumor volume, as defined herein, during the observation period was zero for all test animals in the group; settings: for In vivo activity (e): subcutaneous KB tumor in nu/nu mice
Protocol: METHOD. Inhibition of Tumor Growth in Mice. […] For tumor cell inoculation, 1×10^6 M109 cells (a syngeneic lung carcinoma) in Balb/c strain, or 1×10^6 KB cells in nu/nu strain, in 100 μL are injected in the subcutis of the dorsal medial area (right axilla).
METHOD. Toxicity as Measured by Weight Loss. The percentage weight change of the test animals is determined on selected days post-tumor inoculation (PTI), and during dosing. The results are graphed.

[1] = Plasma stability / free drug release after s.c. dose (EC1496 vs EC0746); format: in vivo, rats
Protocol: METHOD. Human serum stability. Compounds described herein are tested in human serum for stability using conventional protocols and methods. Briefly, test compound is administered to the test animal, such as by subcutaneous injection. The plasma concentration of the conjugate, and optionally one or more metabolites, is monitored over time. The results are graphed to determine Cmax, Tmax, half-life, and AUC for the test compound and metabolites.
EXAMPLE. […] EC1495 and EC0746 (comparator compound) are each administered at 500 nmol/kg by subcutaneous injection. The plasma concentration of the conjugate and the metabolites (aminopterin and aminopterin hydrazide) are monitored over time. […] As also shown in the following table, free drug is released as the parent aminopterin and the hydrazide derivative (EC0470).

[2] = target: T1, folate receptors (FRs) on KB cells (Homo sapiens, UniProt P15328); experiment: Relative affinity assay (3H-folic acid competition) on KB cells; format: binding; settings: for Relative Affinity (a) compared to folic acid: folic acid = 1, in 10% serum/FDRPMI
T1 construct: FR-positive KB cells are heavily seeded into 24-well cell culture plates; endogenous in cells; host or cells: KB cells
Protocol: METHOD. Relative Affinity Assay. The affinity for folate receptors (FRs) relative to folate is determined according to a previously described method (Westerhof, G. R., J. H. Schornagel, et al. (1995) Mol. Pharm. 48: 459-471) with slight modification. Briefly, FR-positive KB cells are heavily seeded into 24-well cell culture plates and allowed to adhere to the plastic for 18 h. Spent incubation media is replaced in designated wells with folate-free RPMI (FFRPMI) supplemented with 100 nM ^3H-folic acid in the absence and presence of increasing concentrations of test article or folic acid. Cells are incubated for 60 min at 37° C. and then rinsed 3 times with PBS, pH 7.4. Five hundred microliters of 1% SDS in PBS, pH 7.4, is added per well. Cell lysates are then collected and added to individual vials containing 5 mL of scintillation cocktail, and then counted for radioactivity. Negative control tubes contain only the ^3H-folic acid in FFRPMI (no competitor). Positive control tubes contain a final concentration of 1 mM folic acid, and CPMs measured in these samples (representing non-specific binding of label) are subtracted from all samples.

[3] = Plasma clearance after s.c. administration; format: in vivo, Lewis rats; settings: EC1669 500 nmol/kg s.c.
Protocol: METHOD. Plasma clearance. In vivo studies include a minimum of 3 test animals, such as rats, per time point. Illustratively, female Lewis rats with jugular vein catheters (Harlan, regular rodent diet) are given a single subcutaneous injection of test compound, such as EC1669 at 500 nmol/kg. Whole blood samples (300 μL) are collected at the following time points: 1 min, 10 min, 30 min, 1 h, 2 h, 3 h, 4 h, 8 h, and 12 h after injection. The blood samples are placed into anti-coagulant tubes containing 1.7 mg/mL of K3-EDTA and 0.35 mg/mL of N-maleoyl-beta-alanine (0.35 mg/mL) in a 0.15% acetic acid solution. Plasma samples are obtained by centrifugation for 3 min at ˜2,000 g and stored at −80° C. The amounts of test compound in the plasma and any metabolites, such as EC1669 and its two active metabolites aminopterin (AMT) and AMT hydrazide (EC0470), respectively, are quantified by LC-MS/MS.

[4] = IC50 for test compound when competed with excess folic acid, read-out: 50% competition (nM) (c)
[5] = as determined by thymidine incorporation, read-out: In vitro IC50 (nM) (b)

T1 sequence (P15328 25-234): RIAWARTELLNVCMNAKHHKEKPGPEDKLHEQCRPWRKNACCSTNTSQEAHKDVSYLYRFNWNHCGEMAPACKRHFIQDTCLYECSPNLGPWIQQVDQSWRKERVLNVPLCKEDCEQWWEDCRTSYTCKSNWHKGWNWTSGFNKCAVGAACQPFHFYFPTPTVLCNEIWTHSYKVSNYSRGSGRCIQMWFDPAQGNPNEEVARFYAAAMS

N=c1[nH]c(N)nc2ncc(CNc3ccc(C(=O)N[C@@H](CCC(=O)NNC(=O)OCCSSC[C@H](NC(=O)[C@H](CCC(=O)NC[C@H](O)[C@@H](O)[C@H](O)[C@H](O)CO)NC(=O)[C@H](CCC(=O)O)NC(=O)[C@H](CCC(=O)NC[C@H](O)[C@@H](O)[C@H](O)[C@H](O)CO)NC(=O)[C@H](CCC(=O)O)NC(=O)[C@H](CCC(=O)NC[C@H](O)[C@@H](O)[C@H](O)[C@H](O)CO)NC(=O)CC[C@H](NC(=O)c4ccc(NCc5cnc6nc(N)[nH]c(=O)c6n5)cc4)C(=O)O)C(=O)O)C(=O)O)cc3)nc12 [EC0531, reference compound]
In vitro specificity (fold) (d) (KB cells (FR+)): 237 fold | In vivo activity (e) (KB tumors): CR

CCCC(=O)OCN(C(=O)[C@@H](NC(=O)[C@H]1CCCCN1C)C(C)CC)[C@H](C[C@H](OC(C)=O)c1nc(C(=O)N[C@H](Cc2ccc(O)cc2)C[C@H](C)C(=O)NNC(=O)OCCSSC[C@H](NC(=O)[C@H](CCC(=O)NC[C@H](O)[C@@H](O)[C@H](O)[C@H](O)CO)NC(=O)[C@H](CCC(=O)O)NC(=O)[C@H](CCC(=O)NC[C@H](O)[C@@H](O)[C@H](O)[C@H](O)CO)NC(=O)[C@H](CCC(=O)O)NC(=O)[C@H](CCC(=O)NC[C@H](O)[C@@H](O)[C@H](O)[C@H](O)CO)NC(=O)CC[C@H](NC(=O)c2ccc(NCc3cnc4nc(N)[nH]c(=O)c4n3)cc2)C(=O)O)C(=O)O)cs1)C(C)C (some centres unmarked) [EC0746, reference compound]
Free drug released (%): AMT ([1]; 500 nmol/kg s.c., plasma): 11.0% | Free drug released (%): AMT-hydrazide (EC0470) ([1]; 500 nmol/kg s.c., plasma): 7.4% | Free drug released (%): Total ([1]; 500 nmol/kg s.c., plasma): 18.4% | drug released relative to EC1496 ([1]; after a subcutaneous dose in rats): more than 2 fold

CCCC(=O)OCN(C(=O)[C@@H](NC(=O)[C@H]1CCCCN1C)C(C)CC)[C@H](C[C@@H](OC(C)=O)c1nc(C(=O)N[C@@H](Cc2ccc(O)cc2)C[C@H](C)C(=O)NNC(=O)OCCSSC[C@@H](NC(=O)[C@@H](CC(=O)O)NC(=O)[C@@H](CC(=O)O)NC(=O)[C@@H](CCCNC(=N)N)NC(=O)[C@@H](CC(=O)O)NC(=O)CC[C@@H](NC(=O)c2ccc(NCc3cnc4nc(N)[nH]c(=O)c4n3)cc2)C(=O)O)C(=O)O)cs1)C(C)C (some centres unmarked) [EC1299]
Relative Affinity (a) compared to folic acid [2]: 0.29 | In vitro specificity (fold) (d) (KB cells (FR+)): 778 fold | IC50 (KB cells (FR+); [4]): 700 nM | IC50 (KB cells (FR+); [5]): 0.9 nM | In vivo activity (e) (KB tumors): CR

CCCC(=O)OCN(C(=O)[C@@H](NC(=O)[C@H]1CCCCN1C)C(C)CC)[C@H](C[C@@H](OC(C)=O)c1nc(C(=O)N[C@@H](Cc2ccc(O)cc2)C[C@H](C)C(=O)NNC(=O)OCCSSC(C)(C)[C@@H](NC(=O)[C@@H](CC(=O)O)NC(=O)[C@@H](CC(=O)O)NC(=O)[C@@H](CCCNC(=N)N)NC(=O)[C@@H](CC(=O)O)NC(=O)CC[C@@H](NC(=O)c2ccc(NCc3cnc4nc(N)[nH]c(=O)c4n3)cc2)C(=O)O)C(=O)O)cs1)C(C)C (some centres unmarked) [EC1393]
Relative Affinity (a) compared to folic acid [2]: 0.25 | In vitro specificity (fold) (d) (KB cells (FR+)): 300 fold

CCCC(=O)OCN(C(=O)[C@@H](NC(=O)[C@H]1CCCCN1C)C(C)CC)[C@H](C[C@@H](OC(C)=O)c1nc(C(=O)N[C@@H](Cc2ccc(O)cc2)C[C@H](C)C(=O)NNC(=O)OCCSSC[C@@H](NC(=O)[C@H](CC(=O)O)NC(=O)[C@H](CC(=O)O)NC(=O)[C@H](CCCNC(=N)N)NC(=O)[C@H](CC(=O)O)NC(=O)CC[C@H](NC(=O)c2ccc(NCc3cnc4nc(N)[nH]c(=O)c4n3)cc2)C(=O)O)C(=O)O)cs1)C(C)C (some centres unmarked) [EC1548]
Relative Affinity (a) compared to folic acid [2]: 0.23 | In vitro specificity (fold) (d) (KB cells (FR+)): 78 fold | IC50 (KB cells (FR+); [4]): 350 nM | IC50 (KB cells (FR+); [5]): 4.4 nM | In vivo activity (e) (KB tumors): CR

CCCC(=O)OCN(C(=O)[C@@H](NC(=O)[C@H]1CCCCN1C)C(C)CC)C(C[C@@H](OC(C)=O)c1nc(C(=O)N[C@@H](Cc2ccc(O)cc2)C[C@H](C)C(=O)NNC(=O)OCCSSC[C@@H](NC(=O)[C@@H](CC(=O)O)NC(=O)[C@H](CC(=O)O)NC(=O)[C@H](CCCNC(=N)N)NC(=O)[C@H](CC(=O)O)NC(=O)CC[C@H](NC(=O)c2ccc(NCc3cnc4nc(N)[nH]c(=O)c4n3)cc2)C(=O)O)C(=O)O)cs1)C(C)C (some centres unmarked) [EC1549]
Relative Affinity (a) compared to folic acid [2]: 0.90 | In vitro specificity (fold) (d) (KB cells (FR+)): 78 fold | IC50 (KB cells (FR+); [4]): 350 nM | IC50 (KB cells (FR+); [5]): 4.5 nM | In vivo activity (e) (KB tumors): CR

CCCCOCN(C(=O)[C@@H](NC(=O)[C@H]1CCCCN1C)C(C)CC)[C@H](C[C@@H](OC(C)=O)c1nc(C(=O)N[C@@H](Cc2ccc(O)cc2)C[C@H](C)C(=O)NNC(=O)OCCSSC[C@@H](NC(=O)[C@H](CCC(=O)NC[C@H](O)[C@@H](O)[C@H](O)[C@H](O)CO)NC(=O)[C@@H](CCC(=O)O)NC(=O)[C@H](CCC(=O)NC[C@H](O)[C@@H](O)[C@H](O)[C@H](O)CO)NC(=O)[C@@H](CCC(=O)O)NC(=O)[C@H](CCC(=O)NC[C@H](O)[C@@H](O)[C@H](O)[C@H](O)CO)NC(=O)CC[C@@H](NC(=O)c2ccc(NCc3cnc4nc(N)[nH]c(=O)c4n3)cc2)C(=O)O)C(=O)O)cs1)C(C)C (some centres unmarked) [EC1663]
partial responses (test animals) (KB tumors; 0.5 μmol/kg i.v. TIW, 2 weeks): 4/4 | whole animal toxicity (KB tumors; 0.5 μmol/kg i.v. TIW, 2 weeks): did not exhibit significant host animal toxicity; also recorded: whole animal toxicity was not observed

CN(Cc1cnc2nc(N)nc(N)c2n1)c1ccc(C(=O)N[C@@H](CCC(=O)O)C(=O)O)cc1 [methotrexate, reference compound]
binding to the cell surface FRs ([2]; in comparison to EC1669): poor binding

aminopterin hydrazide [EC0470, reference compound]
AUC of EC1669-derived metabolite [3]: 3.9 nmol·min/mL | elimination half-life of EC1669-derived metabolite [3]: 1.87 h | Cmax ([3]; plasma, read-out: Cmax of EC1669-derived metabolite): 21 nM
